Consider two compounds from article PMC5727211, “Development of Erasin: a chromone-based STAT3 inhibitor which induces apoptosis in Erlotinib-resistant lung cancer cells” (Scientific Reports, 2017).

Molecules are shown by their SMILES. “Also recorded” adds a separate entry of the source.

Assay type in all cases: cell-based, human
What all share (conditions): 24 h

In one assay the test system is MDA-MB-231 cells. The assay is described as follows: Apoptosis assay (Annexin V/7-AAD flow cytometry), MDA-MB-231 cells. The procedure:
(§1) MDA-MB-453 cells (3 × 10^5 cells per well), MDA-MB-231 cells (2 × 10^5 cells per well), parental HCC-827 or Erlotinib-resistant HCC-827 cells (both 2.5 × 10^5 cells per well) were seeded in 24-well tissue culture plates (Corning #3524) and treated with test compound or DMSO (final DMSO concentration: 0.2%) for 24 h. Afterwards, the cell culture supernatant from each well was collected. Cells were washed twice with warm PBS and incubated with Accutase (BD Bioscience #561527) at 37 °C for 10 min. The supernatants were then returned to each well to neutralize the Accutase solution and the cells were centrifuged at 3000 rpm, at 4 °C for 5 min. The cell pellets were washed twice with cold PBS and centrifuged again. PE Annexin V Apoptosis Detection Kit I (BD Bioscience, 559763) was used for cell staining. Cells were resuspended in 1 x binding buffer and incubated with PE Annexin V and 7-AAD at 4 °C for 30 min. Apoptosis was measured using an LSR II flow cytometer (BD Bioscience). Experiments were carried out in at least triplicate.

Another assay deals with parental HCC-827 cells. The assay is described as follows: Apoptosis assay (Annexin V/7-AAD flow cytometry), parental HCC-827 cells. The procedure: Afterwards, the cell culture supernatant from each well was collected. […] The supernatants were then returned to each well to neutralize the Accutase solution and the cells were centrifuged at 3000 rpm, at 4 °C for 5 min. The cell pellets were washed twice with cold PBS and centrifuged again. […] Cells were resuspended in 1 x binding buffer and incubated with PE Annexin V and 7-AAD at 4 °C for 30 min. Apoptosis was measured using an LSR II flow cytometer (BD Bioscience). Experiments were carried out in at least triplicate.

For a further assay, the system named is MDA-MB-453 cells. The assay is described as follows: Apoptosis assay (Annexin V/7-AAD flow cytometry), MDA-MB-453 cells. Here is the method:
as §1
On the technique in general: In flow cytometry, cells or beads pass a laser one at a time.

For assay [1], the system named is Erlotinib-resistant HCC-827 cells. The experiment in a line: Apoptosis assay (Annexin V/7-AAD flow cytometry), Erlotinib-resistant HCC-827 cells. The procedure: Afterwards, the cell culture supernatant from each well was collected. […] The supernatants were then returned to each well to neutralize the Accutase solution and the cells were centrifuged at 3000 rpm, at 4 °C for 5 min. The cell pellets were washed twice with cold PBS and centrifuged again. […] Cells were resuspended in 1 x binding buffer and incubated with PE Annexin V and 7-AAD at 4 °C for 30 min. Apoptosis was measured using an LSR II flow cytometer (BD Bioscience). Experiments were carried out in at least triplicate. […]

In assay [2] the test system is STAT3 Tyr705 phosphorylation. The experiment in a line: Western Blot, STAT3 Tyr705 phosphorylation in parental HCC-827 cells. The procedure:
(§2) HepG2 cells were plated in 6-well plates (Corning #3516) and allowed to reach approximately 60% confluence. The medium was then replaced with serum-free medium for 24 h. Cells were subsequently pre-treated with compound or DMSO (final DMSO concentration: 0.2%) for 1 h at 37 °C, prior to stimulation for 15 min with 50 ng/mL IFNγ (Pepro Tech, for STAT1 phosphorylation), or 30 min with 50 ng/mL IL-6 (Pepro Tech, for STAT3 phosphorylation). Cells were treated with test compound or DMSO for 1 h (final DMSO concentration 0.2%). K562 cells (1.5 × 10^6 cells per well) were seeded in 6-well plates (Corning #3516) and were treated with test compound or DMSO for 1.5 h (final DMSO concentration 0.2%). […] Afterwards, cells were treated with the test compounds or DMSO (final DMSO concentration: 0.2%) for 24 h. Afterwards, the cells were washed twice with cold phosphate buffered saline (PBS). […]
(§3) Lysates were separated on a polyacrylamide gel under denaturing conditions, and transferred to a nitrocellulose membrane. STAT phosphorylation was assessed using rabbit monoclonal antibodies against the phosphorylated forms only of STAT1, STAT3 or STAT5 (Cell Signaling, 1:1000) with secondary antibody swine anti-rabbit HRP from Dako, 1:3000), followed by reblotting with rabbit monoclonal antibodies against total STAT1, STAT3 or STAT5 (Cell Signaling), and subsequently β-actin loading control. […]
Background: Immunoblotting shows a protein as a band on a membrane.

In assay [3] the test system is STAT3 Tyr705 phosphorylation. The assay is described as follows: Western Blot, STAT3 Tyr705 phosphorylation in Erlotinib-resistant HCC-827 cells. Here is the method: as §2, §3

Consider `CC(C)(C)c1ccc2occ(/C=N/NC(=O)c3cccnc3)c(=O)c2c1` [Compound 8], for which the “increase in rate of apoptosis relative to DMSO control” value is given as “up to three-fold increase” with MDA-MB-231 cells, “up to four-fold increase” with parental HCC-827 cells, “did not show an increase” in the assay with MDA-MB-453 cells and “equally effective” in assay [1]. Also, the “STAT3 Tyr705 phosphorylation” value in assay [2] and in assay [3] was “dose-dependent inhibitory effect” each time.
On to `CCC(C)(C)c1ccc2occ(/C=N/NC(=O)c3cccnc3)c(=O)c2c1` [Compound 9], for which the “increase in rate of apoptosis relative to DMSO control” value is listed as “did not significantly increase apoptosis” in the assay with MDA-MB-231 cells, “did not significantly increase apoptosis; also recorded: did not increase the apoptotic rate” in the assay with parental HCC-827 cells, “did not significantly increase apoptosis” in the assay on MDA-MB-453 cells and “did not increase the apoptotic rate” in assay [1]. The “STAT3 Tyr705 phosphorylation” value in assay [2] and in assay [3] was “did not reduce STAT3 Tyr705 phosphorylation” each time.
